B1: BdPepR2 (Brachypodium distachyon) (protein)
chain: MPGRLSAKRVSLRSLDSTEELPEDMTYEDILRATDNWSEKYVIGKGRHGTVYRTDCKLGKQWAVKTVDLSQCKFPIEMKILNTVKHRNIVRMAGYYIRGNVGLILYEYMPEGTLFELLHERKPQVALGWMARHQIALGVAQGLSYLHQDCVPMIVHRDVKSSNILMDVELVPKLTDFGMGKIVGDEDSDATVSVIVGTLGYIAPEHGYSTRLSEKSDVYSYGVVLLELLCRKMPVDSAFGDGVDIVTWMRSNLKQADHCSVMSCLDEEIVYWPEDEQAKALHLLDLAISCTEVACQLRPSMREVVNVLVRMDK
notes: full length 1146 aa; pGEX-6P-2, E. coli BL21(DE3)pLysS; GST tag cut off with PreScission protease

Columns and labels:
BdPepR2 [1] = biological target: T1, BdPepR2 (Brachypodium distachyon, UniProt A0A2K2CYK2); test: Kinase-Glo plus luminescent kinase assay; assay type: biochemical; conditions: 1 µM cGMP suppresses kinase activity; 100 μM ATP, Histone Type III-S, 5 mM MgCl2 and 5 mM MnCl2, 1 mM DTT, 25 mM Tris/HCl pH 7.5, 30 °C; extent only in figure
T1 construct: gene LOC100834510; full length 1146 aa; pGEX-6P-2, E. coli BL21(DE3)pLysS; GST tag cut off with PreScission protease
Target sequence in this assay (A0A2K2CYK2 entry or part of it M1083R): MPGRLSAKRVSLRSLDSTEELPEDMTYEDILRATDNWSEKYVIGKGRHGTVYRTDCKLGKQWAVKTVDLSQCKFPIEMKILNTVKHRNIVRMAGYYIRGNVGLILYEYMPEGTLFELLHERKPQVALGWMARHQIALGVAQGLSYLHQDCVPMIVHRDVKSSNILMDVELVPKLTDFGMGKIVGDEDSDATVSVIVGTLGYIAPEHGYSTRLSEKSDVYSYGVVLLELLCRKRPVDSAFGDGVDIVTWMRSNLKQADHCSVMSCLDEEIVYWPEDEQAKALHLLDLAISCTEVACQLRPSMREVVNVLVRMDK

BdPepR2 [2] = biological target: T1, BdPepR2; test: Kinase-Glo plus luminescent kinase assay; assay type: biochemical; conditions: 1 µM cGMP suppresses kinase activity; 100 μM ATP, Histone Type III-S, 5 mM MgCl2 and 5 mM MnCl2, 1 mM DTT, 25 mM Tris/HCl pH 7.5, 30 °C; extent only in figure; remark: listed apart in the source
BdPepR2 [3] = biological target: T2, BdPepR2 (Brachypodium distachyon, UniProt A0A2K2CYK2, M1083A); test: Kinase-Glo plus luminescent kinase assay; assay type: biochemical; conditions: 1 µM cGMP suppresses kinase activity; 100 μM ATP, Histone Type III-S, 5 mM MgCl2 and 5 mM MnCl2, 1 mM DTT, 25 mM Tris/HCl pH 7.5, 30 °C; extent only in figure
T2 construct: gene LOC100834510; full length 1146 aa; pGEX-6P-2, E. coli BL21(DE3)pLysS; GST tag cut off with PreScission protease
T2 sequence (A0A2K2CYK2 entry or part of it M1083A): as the sequence (A0A2K2CYK2 entry or part of it M1083R) above, with R233A counted along it

[4] = substrate: Nc1nc2c(ncn2[C@@H]2O[C@H](COP(=O)(O)OP(=O)(O)OP(=O)(O)O)[C@@H](O)[C@H]2O)c(=O)[nH]1; test: guanylyl cyclase assay, cGMP by LC-MS/MS; assay type: biochemical, Brachypodium distachyon; conditions: 5 mM MnCl2, 50 mM Tris/HCl pH 7.5, 30 °C, 15 min, GTP 0.5-2 mM, GC centre

Row | Molecule | Kinase-Glo plus luminescent kinase assay (BdPepR2 [1]) | Kinase-Glo plus luminescent kinase assay (BdPepR2 [2]) | Kinase-Glo plus luminescent kinase assay (BdPepR2 [3]) | Km [4] [µM]
1 | Nc1nc2c(ncn2[C@@H]2O[C@@H]3COP(=O)(O)O[C@H]3[C@H]2O)c(=O)[nH]1 [cGMP] | kinase activity of BdPepR2, BdPepR2M1066A, and BdPepR2M1066R is suppressed by GTP and cGMP | only the product of GC activity, cGMP, statistically significantly suppress kinase activity of BdPepR2 | kinase activity of BdPepR2, BdPepR2M1066A, and BdPepR2M1066R is suppressed by GTP and cGMP | 
2 | B1 |  |  |  | 1189

From paper PMC8228174, “In Vitro Characterization of Guanylyl Cyclase BdPepR2 from Brachypodium distachyon Identified through a Motif-Based Approach” (International Journal of Molecular Sciences, 2021)
